# Assay: Solubility of methyleneadamantane in organic compound
# Format: physicochemical
# Conditions: supernatant analysed by gas chromatography
# Method: To a predetermined amount of an organic solvent was added 2-methyleneadamantane in such an amount that it remains in the solvent after dissolution. After stirring the mixture while keeping the temperature at 0° C., the resulting mixture was allowed to stand. A supernatant was collected therefrom and its composition was analyzed by gas chromatography.
# The solubility of 2-methyleneadamantane and the amount of 2-methyleneadamantane in the reaction product were measured by gas chromatography analysis described below. • Gas chromatography analyzer: “GC-14B”, product of Shimadzu Corporation • Column: “TC-1”, product of Tokyo Chemical Industry (inner diameter: 0.25 mm, thickness of filler: 0.25 μm, length: 60 m) • Feed port temperature: 150° C. • Detector: FID • Detector temperature: 280° C. • Conditions of column oven: The column oven was retained at 100° C. for 3 minutes, heated to 180° C. at 10° C./min, retained at 180° C. for 5 minutes, heated to 280° C. at 10° C./min, and then retained at 280° C. for 5 minutes.
smiles,measurement,value
"C=C1C2CC3CC(C2)CC1C3 [methyleneadamantane, 2-methyleneadamantane]",solubility of methyleneadamantane in 100 g of n-undecane at 0° C.,101 g

# Reference: patent US20080051597A1, “Process for Producing 2-Methyladamantan-2-Yl (Meth)Acrylate and 2-Methyladamantan-2-Yl (Meth)Acrylate” (Mitsubishi Chemical Corporation, priority 2004, published 2008)
